# Reference: patent publication US20200131156A1, “ARYLSULFONYLPYROLECARBOXAMIDE DERIVATIVES AS Kv3 POTASSIUM CHANNEL ACTIVATORS” (H. Lundbeck A/S, priority 2018, published 2020)
# Target: T1, human Kv3.1b (Homo sapiens, UniProt P48547)
# T1 construct: expressed in transfected cells
# T1 sequence (P48547 1-585 isoform P48547-2): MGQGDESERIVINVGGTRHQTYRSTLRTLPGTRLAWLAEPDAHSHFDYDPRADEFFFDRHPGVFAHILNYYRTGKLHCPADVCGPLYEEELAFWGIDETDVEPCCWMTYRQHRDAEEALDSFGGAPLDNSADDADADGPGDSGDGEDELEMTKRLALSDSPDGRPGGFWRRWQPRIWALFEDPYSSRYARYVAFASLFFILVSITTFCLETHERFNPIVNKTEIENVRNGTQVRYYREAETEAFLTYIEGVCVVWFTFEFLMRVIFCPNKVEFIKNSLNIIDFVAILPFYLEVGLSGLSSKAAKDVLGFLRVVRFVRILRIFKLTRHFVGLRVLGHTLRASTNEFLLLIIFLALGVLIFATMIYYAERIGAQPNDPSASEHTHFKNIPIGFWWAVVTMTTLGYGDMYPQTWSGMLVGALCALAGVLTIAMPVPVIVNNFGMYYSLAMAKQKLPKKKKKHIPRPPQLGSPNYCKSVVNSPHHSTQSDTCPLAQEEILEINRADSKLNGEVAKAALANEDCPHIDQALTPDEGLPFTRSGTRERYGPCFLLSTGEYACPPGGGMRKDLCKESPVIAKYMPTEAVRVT
# Assay: Manual patch clamp electrophysiology, HEK-293 cells stably expressing human Kv3.1b
# Format: cell-based
# Settings: for hKv3.1 ECΔ30% increase: concentration increasing current by 30% at the −10 mV step; for hKv3.1 ECΔ5 mV: concentration that shifts activation threshold by 5 mV
# Protocol: Manual Patch Clamp Electrophysiological Evaluation, hKv3.1, hKv3.2, hKv3.3, hKv3.4:
# HEK-293 cells stably expressing human Kv3.1b, Kv3.2, Kv3.3 or Kv3.4 were used for the experiments.
# Kv3.1b, Kv3.2: Cells were cultured in MEM medium supplemented with 10% Fetal Bovine Serum, 1% Penicillin/Streptomycin, 2 mM glutamine and 0.6 mg/mL geneticin. Cells were grown to 80-90% confluency at 37° C. and 5% CO2 Kv3.3 or Kv3.4: Cells were cultured in DMEM medium supplemented with 10% Fetal Bovine Serum, 500 ug/mL Geneticidin and 1% Penicillin/Streptomycin. Cells were grown to 80-90% confluency at 37° C. and 5% CO2.
# On the day of the experiment the cells were detached by TrypLE and resuspended in culture medium. Cells were centrifuged, media removed and the cells were resuspended in extracellular buffer containing (in mM): 130 Na-gluconate, 20 NaCl, 4 KCl, 1 MgCl2, 1.8 CaCl2, 10 HEPES and 5 glucose, pH 7.3 adjusted with NaOH, 310-320 mOsm
# Patch-clamp recordings were performed using a manual patch-clamp system (Axon Multiclamp 700B, Digidata 1440, pCLAMP 10, Molecular Devices Corporation) with a fast perfusion system (RSC-160 Rapid solution Changer, BioLogic). Whole-cell recordings were carried out using an intracellular solution containing (in mM): 100 K-gluconate, 40 KCl, 10 HEPES, 1 EGTA, 1 MgCl2, pH 7.2 adjusted with KOH, 290-300 mOsm. Cell membrane potentials were held at −80 mV and current voltage-relationship was generated by voltage steps (50 ms duration) from −100 mV to +10 mV (in 10 mV increments) and then back to −100 mV for 50 ms, with inter-sweep interval of 3 s. The peak current amplitude of −10 mV was monitored until stable (<5% change) by using one step voltage protocol. One IV protocol was run as baseline, then compound perfusion was stared and peak current stability was monitored with single step protocol prior to the IV protocol. Single concentrations were measured per cell. Acceptable cells had seal resistance >500 MOhm, Access resistance <10 MOhm, and leak current <200 pA.
# Data analysis was performed using Clampfit (V10.2) in combination with Microsoft Excel™ (Redmond, Wash., USA). Current voltage relationships were plotted from the peak current (baseline subtracted) at the individual voltage steps normalized to the vehicle addition at 10 mV. The voltage threshold for channel activation was defined as 5% activation of the peak current at 10 mV in presence of vehicle. […] The concentration needed to shift the threshold 5 mV was readout from this curve (ECΔ5 mV), as well as the ability to increase the peak current at the −10 mV step (EC30% increase). […]
Compound,hKv3.1 ECΔ30% increase,hKv3.1 ECΔ5 mV
"Cc1ccc(S(=O)(=O)n2ccc(C(=O)NCc3ncco3)c2)cc1 [Compound 86, 1-(4-methylbenzene-1-sulfonyl)-N-[(1,3-oxazol-2-yl)methyl]-1H-pyrrole-3-carboxamide]",10.1 µM,3.0 µM
"Cc1cnc(CNC(=O)c2ccn(S(=O)(=O)c3ccc(F)cc3C)c2)cn1 [Compound 90, 1-(4-fluoro-2-methylbenzene-1-sulfonyl)-N-[(5-methylpyrazin-2-yl)methyl]-1H-pyrrole-3-carboxamide]",1.8 µM,0.6 µM
